# Experimental data reported in patent publication US10646600B2, “HER2 polypeptides useful for imaging and monitoring tumors and cancers” (GE HEALTHCARE LIMITED, priority 2013, dated 2020).
# “Also recorded” adds a separate entry of the source.
# Tests used:
# [1] = system: SKOV-3 cells; experiment: In vitro uptake assay in SKOV-3 cells (blocking, siRNA, drug treatment, specific activity); type: cell-based, human; settings: NVP-AUY922 for 24 h
# Method: For siRNA-mediated HER2 knockdown, SKOV-3 cells were transfected with 25 nM scramble control (SCR; Dharmacon, Lafayette, Colo., ON-TARGETplus Non-targeting Pool, Cat. Nr: D-001810-10-05) or HER2-targeting siRNA (Invitrogen ERBB2 Silencer® Select Validated siRNA; Cat. Nr: 4457298) by reverse wet transfection with Lipofectamine RNAiMAX (Invitrogen) according to manufacturer's instructions. 3×10^5 cells were seeded in 12-well plates 48 h prior to uptake experiment. Target knockdown was verified by western blotting on cells that were transfected in parallel.
# For all uptake studies in response to drug treatment, 2.5×10^5 SKOV-3 cells were seeded in complete medium 48 h prior to uptake experiments.
# For baseline uptake in HER2 positive or negative lineages, 3×10^5 cells were seeded in complete media in 12-well plates (Corning, Tewksbury Mass.) and allowed to recover overnight. Cells were washed twice with serum-free medium and pulsed with 370 KBq in 500 μL serum-free medium for one h. For blocking studies, cells were co-incubated with tracer and 0.5 mg/mL cold unlabeled [^19F]GE-226[SEQ ID NO 1].
# Cells were washed with PBS, trypsinized, neutralized with complete medium and centrifuged. The pellet was washed three times with PBS and lysed in 120 μL RIPA buffer (Sigma-Aldrich). The radioactivity of 100 μL lysate was counted on a Packard Cobra II gamma counter (Perkin Elmer). Radioactivity was normalized to applied radioactivity and protein content, which was determined for each sample by BCA assay (Pierce, Rockford, Ill.).
# [2] = system: HER2; experiment: Western blot of HER2 protein expression in drug-treated SKOV-3 cells; type: cell-based, human; settings: NVP-AUY922 for 24 h, compared to untreated controls
# Method: For all uptake studies in response to drug treatment, 2.5×10^5 SKOV-3 cells were seeded in complete medium 48 h prior to uptake experiments. […] Cells were lysed in RIPA buffer containing protease and phosphatase inhibitors (from Sigma-Aldrich). Equal amounts of protein (20 μg) were resolved on 4-15% mini-protean TGX gels (Biorad, Hercules, Calif.) and transferred to PVDF membranes (Trans-Blot Turbo Transfer Packs, Biorad). Membranes were blocked for 1 h in 5% milk in Tris-buffered saline containing 0.1% v/v tween (TBST, Cell Signaling, Danvers, Mass.) and incubated with antibodies against HER2 (Cell Signal, Cat. Nr: 2165 for visualization of p95HER2 and full-length HER2 bands and Cat. Nr: 4290 for blots where only full-length HER2 is shown), EGFR (Cell Signal, Cat. Nr: 4267) or (3-actin (Abcam, Cambridge, United Kingdom, Cat. Nr: ab6276) overnight at 4° C. Secondary HRP-conjugated mouse and rabbit antibodies (Santa Cruz Biotechnology, Dallas, Tex.) were applied for one h at room temperature. Signals were visualized using Amersham ECL™ Western Blotting Detection Reagent (GE Healthcare) and Amersham Hyper-film (GE Healthcare).
# [3] = system: SKOV-3 xenografts; experiment: PET-CT imaging and kinetic modeling, SKOV-3 xenografts; type: in vivo, mice
# Method: […] […] To investigate response to HSP90 inhibition, SKOV-3 xenograft-bearing mice were treated with 50 mg/kg NVP-AUY922 or equivalent volume of vehicle (˜5 μL/g body weight; 10% DMSO and 5% Tween-20 in PBS) q.d. i.p. for three days. 24 h after the last treatment, animals were used for PET imaging.
# Mice were anesthetized through isoflurane inhalation and scanned on a dedicated small animal PET-CT scanner (Siemens Multimodality Inveon, Erlangen, Germany). Low dose CT scans were first acquired (80 kVp, 0.5 mA, 220 degree rotation, 600 ms per degree exposure time, 80 μm reconstruction pixel size) for PET attenuation correction and to obtain an anatomical reference. PET images were acquired following a bolus i.v. injection of approximately 3.7 MBq [^18F]GE-226 in the tail vein. Dynamic emission scans were acquired in list mode format over 60 minutes. The acquired data were sorted into 0.5-mm sinogram bins and 19 time frames for image reconstruction by filtered back projection (4×15 seconds and 4×60 seconds followed by 11×300 seconds). The Siemens Inveon Research Workplace software was used for visualization of radiotracer uptake. 30 to 60-minute cumulative images of the dynamic data were employed to define 3-dimensional (3D) regions of interest (ROI). Arterial input function was estimated by drawing ROIs over the center of the heart cavity using 0.25 to 2 minutes of cumulative images. The count densities were averaged for all ROIs at each time point to obtain time versus radioactivity curves (TAC). Tumor TACs were normalized to injected dose measured by a VDC-304 dose calibrator (Veenstra Instruments, Joure, Netherlands) and normalized uptake was expressed as percentage injected dose per mL tissue (NUV; % ID/mL). Normalized uptake of radiotracer at 60 minutes (NUV60) was used for comparisons. For qualitative image visualization, cumulative images of the dynamic data (30 to 60 min) were also iteratively reconstructed (OSEM3D).
# Kinetic analysis of PET data was performed applying a standard two-tissue irreversible compartmental model to fit each tumor TAC with the corresponding image-derived plasma TAC as input function (IF) to estimate K1 (mL/cm^3/min), k2, (1/min) and k3 (1/min) and the blood vascular component Vb (mL blood/mL tissue; unitless). The irreversible uptake rate Ki (mL/cm^3/min) was computed as K1×k3/(k2+k3). To estimate the kinetic parameters the measured tumor TAC (tTAC) was modeled as tTAC(t)=(1−Vb)h(t)⊗IF(t)+VbIF(t) with h(t) indicating the unknown tissue impulse function and ⊗ the convolution operator. The parameter vector p=[K1, k2, k3, Vb] was estimated with the standard Weighted Non-Linear Least Squares (WNLLS) by minimizing the Weighted Residual Sum of Squares (WRSS) function
# [4] = system: HER2; experiment: HER2 expression in SKOV-3 tumors after NVP-AUY922; type: in vivo, mice; settings: 3 doses of 50 mg/kg NVP-AUY922 versus vehicle
# Method: For blocking studies, SKOV-3 xenograft bearing mice were administered 500 μg (˜25 mg/kg) cold [^19F]GE-226[SEQ ID NO 1] intravenously (i.v.) through the tail vain 20 minutes before administration of radiotracer. […] To investigate response to HSP90 inhibition, SKOV-3 xenograft-bearing mice were treated with 50 mg/kg NVP-AUY922 or equivalent volume of vehicle (˜5 μL/g body weight; 10% DMSO and 5% Tween-20 in PBS) q.d. i.p. for three days. 24 h after the last treatment, animals were used for PET imaging.
# Excised and snap frozen tumor tissue samples were homogenized in RIPA lysis buffer (Sigma-Aldrich) with the PreCellys 24 homogenizer and CK14 beads-containing tubes (two cycles of 25 seconds at 6500 rpm). HER2 expression was determined by ELISA (Calbiochem, Darmstadt, Germany, c-ErbB2/c-Neu Rapid Format ELISA Ki, Cat. Nr: QIA10-1EA) according to manufacturer's instructions.
# [5] = system: NCI-N87 tumors; experiment: Fluorescent GE-226 localization versus DAKO HercepTest, NCI-N87 tumors; type: in vivo, mice; settings: 15 mg/kg i.v., tumors excised two h post injection
# Method: (§1) The bilateral A431/NCI-N87 model was established by s.c. injection of A431 (1×10^7 cells) and NCI-N87 cells (2×10^6 cells) in 100 μL PBS mixed 1:1 with Matrigel™ in the lower flanks of 4-6 week old male CD-1 nude mice (Charles River Laboratories, Wilmington, Mass.). Tumor volumes were monitored frequently as described above and when they reached 50-100 mm^3 (approximately 3-4 weeks), mice were administered a mixture of Hoechst (˜20 mg/kg) and fluorescein-conjugated-GE226[SEQ ID NO 1] (˜15 mg/kg) in 100 μL PBS i.v. through the tail vein. The tumors were excised 120 minutes post injection, immediately fixed in formalin and embedded in paraffin. Sections were sliced and stored in the dark at −80° C. Immunofluorescent images were acquired at 400× magnification. Adjacent tumor sections were immunohistochemically stained with HercepTest™.
# (§2) HER2 protein expression in excised tumors was assessed using the HercepTest™ (Dako, Ely, United Kingdom, Cat. Nr: K5204) according to manufacturer's instructions.
# (§3) To examine cellular localization, GE-226[SEQ ID NO 1] was labeled with fluorescein and compared localization and fluorescent intensity in tumor sections with FDA approved DAKO HercepTest™. In contrast to PET experiments, normalization to injected dose is not possible with fluorescent compounds. To eliminate inter-subject variability, experiments were performed in bilateral tumor-bearing mice. […]
# [6] = system: A431 tumors; experiment: Fluorescent GE-226 localization versus DAKO HercepTest, A431 tumors; type: in vivo, mice; settings: 15 mg/kg i.v., tumors excised two h post injection; HER2 negative
# Method: as §1, §2, §3
# [7] = system: HER2; settings: report by Smith-Jones and co-workers (36); cited from earlier work
molecule,measurement,setting,value
"CCNC(=O)c1noc(-c2cc(C(C)C)c(O)cc2O)c1-c1ccc(CN2CCOCC2)cc1 [NVP-AUY922, reference compound]",effect on tracer uptake in SKOV-3 cells,[1],reduced tracer uptake
same,effect on HER2 protein expression,[2],dose-dependent HER2 degradation; also recorded: dose-dependent decrease of HER2 protein expression
same,effect on tracer uptake in vivo,[3]; 3 doses of 50 mg/kg NVP-AUY922,decreased tracer uptake
same,AUC0_60 of [18F]GE-226 after drug,"[3]; three daily doses of 50 mg/kg NVP-AUY922, vehicle 618.4±90.1, P=0.043",446.7±42.8 % ID/mL*min
same,NUV60 of [18F]GE-226 after drug,"[3]; three daily doses of 50 mg/kg NVP-AUY922 i.p., vehicle 13.5±2.1",9.0±0.9 % ID/mL
same,effect on HER2 expression in tumors,[4],reduced HER2 expression
fluorescein-GE-226: GE-226[SEQ ID NO 1] labeled with fluorescein,localization of fluorescent staining versus HER2,[5],co-localized with regions that are HER2 positive
same,localization of fluorescent staining versus HER2,[5]; listed as fluorescently labeled tracer analogue,co-localized with HER2 expression at the cellular level
same,fluorescent staining,[6],negligible
C=CCNC1=C2C[C@@H](C)C[C@H](OC)[C@H](O)[C@@H](C)/C=C(\C)[C@H](OC(N)=O)[C@@H](OC)/C=C\C=C(/C)C(=O)NC(=CC1=O)C2=O [17-allylaminogeldanamycin],effect on HER2,[7],degrades HER2
